Source: patent US20220160718A1, “COMPOSITIONS AND METHODS OF TREATING CANCER” (Bristol-Myers Squibb Company, priority 2018, published 2022)

What was measured:
[1] = system: Mouse colon tumor MC38 cells; experiment: Mouse colon tumor (MC38) model, anti-tumor efficacy; assay type: in vivo
Method: (§1) Female C57BL/6 mice from Charles River Laboratories (Raleigh, N.C.) were received in house at age 6-8 weeks and acclimated for 3-7 days prior to implant. Mouse colon tumor MC38 cells were implanted subcutaneously at a concentration of 1×10^7 cells/mL, 0.1 mL per injection, using a 1 mL tuberculin syringe with 25 g needle.
On Day 6 post implant, mice were randomized and sorted into groups with 10 mice per group. […] Antibody B was administered i.p. every 4 days for a total of 3 doses.
(§2) Tumors and group body weights were weighed and measured twice weekly until tumors reached a volume of approximately 1500 mm^3. Animals were euthanized if the tumor reached a volume greater than approximately 1500 mm^3 or appeared ulcerated. Mean, median and/or survival plots as well as number of tumor-free mice were calculated to determine efficacy.

[2] = system: Mouse colon tumor CT26 cells; experiment: Mouse colon tumor (CT26) model, anti-tumor efficacy; assay type: in vivo
Method: as §1, with “BALB/C” for “C57BL/6”, “ENVIGO (Frederick, Md.)” for “Charles River Laboratories (Raleigh, N.C.)”, “implantation.” for “implant.”, “CT26” for “MC38”
On Day 10 post implant, mice were randomized and sorted into groups with 10 mice per group. […] Antibody B was administered i.p. every 4 days for a total of 3 doses.
as §2

human CCR2 [3] = biological target: T1, human CCR2 (Homo sapiens, UniProt P41597); experiment: Human CCR2-mediated calcium flux in THP-1 cells; assay type: cell-based; parameters: established with the human monocytic cell line, THP-1; endogenous in cells; host or cells: THP-1 human monocytic cell line; conditions: human pharmacology, human MCP-1 10 nM, read-out: CCR2 Potency, ligand-induced calcium flux in cells
T1 sequence (P41597 whole entry): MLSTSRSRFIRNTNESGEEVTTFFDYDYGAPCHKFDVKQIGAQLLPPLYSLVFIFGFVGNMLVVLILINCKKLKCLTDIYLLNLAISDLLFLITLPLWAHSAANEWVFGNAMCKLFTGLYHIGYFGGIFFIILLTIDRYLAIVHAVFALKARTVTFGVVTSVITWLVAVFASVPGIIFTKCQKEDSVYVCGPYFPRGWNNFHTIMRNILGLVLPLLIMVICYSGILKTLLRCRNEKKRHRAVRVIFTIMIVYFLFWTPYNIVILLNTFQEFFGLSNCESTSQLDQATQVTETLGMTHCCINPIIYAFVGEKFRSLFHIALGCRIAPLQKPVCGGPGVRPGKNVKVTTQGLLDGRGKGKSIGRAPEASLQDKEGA
Method: (§3) All samples were tested in duplicate.

human CCR5 [4] = biological target: T2, human CCR5 (Homo sapiens, UniProt P51681); experiment: Human CCR5-mediated CD11b integrin upregulation in whole blood; assay type: cell-based; parameters: established with human whole blood; from tissue; host or cells: human whole blood; conditions: human pharmacology, MIP-1beta 50 nM, read-out: CCR5 Potency, ligand-induced integrin upregulation in whole blood
T2 sequence (P51681 whole entry): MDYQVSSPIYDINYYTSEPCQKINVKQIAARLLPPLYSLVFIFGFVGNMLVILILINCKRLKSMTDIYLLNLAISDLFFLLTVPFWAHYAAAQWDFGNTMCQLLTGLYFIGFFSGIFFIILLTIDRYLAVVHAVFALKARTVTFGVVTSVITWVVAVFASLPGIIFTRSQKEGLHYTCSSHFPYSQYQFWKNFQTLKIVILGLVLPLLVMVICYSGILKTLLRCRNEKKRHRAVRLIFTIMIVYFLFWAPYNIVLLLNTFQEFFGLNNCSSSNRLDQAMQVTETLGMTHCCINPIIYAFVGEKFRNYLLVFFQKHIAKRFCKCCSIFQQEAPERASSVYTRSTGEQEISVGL

mouse CCR2 = biological target: T3, mouse CCR2 (Mus musculus, UniProt P51683); experiment: Mouse CCR2 potency (assay not specified)
T3 construct: WEHI-274.1 mouse monocyte line; endogenous in cells; host or cells: WEHI-274.1 mouse monocyte line
T3 sequence (P51683 whole entry): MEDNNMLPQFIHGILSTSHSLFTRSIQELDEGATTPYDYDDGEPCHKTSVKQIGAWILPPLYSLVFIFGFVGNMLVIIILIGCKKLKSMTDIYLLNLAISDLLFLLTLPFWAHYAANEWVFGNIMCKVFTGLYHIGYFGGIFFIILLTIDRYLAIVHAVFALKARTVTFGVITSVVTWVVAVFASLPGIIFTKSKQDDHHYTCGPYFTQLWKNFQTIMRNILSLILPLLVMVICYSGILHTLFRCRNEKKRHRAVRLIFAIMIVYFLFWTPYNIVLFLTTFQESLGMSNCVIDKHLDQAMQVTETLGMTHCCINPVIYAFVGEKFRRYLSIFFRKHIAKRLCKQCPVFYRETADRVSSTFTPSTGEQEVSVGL

human CCR2 [5] = biological target: T1, human CCR2; experiment: Human CCR2-mediated CD11b integrin upregulation in whole blood; assay type: cell-based; conditions: human pharmacology, MCP-1 10 nM, read-out: CCR2 Potency, ligand-induced integrin upregulation in whole blood
Method: A CCR2-dependent CD11b upregulation assay was established with human whole blood. […] The reactions were incubated for 30 minutes at 37° C. […] The samples were then incubated for 30 minutes on ice in the dark. […] Data acquisition and analysis were performed using CellQuestPro™ software. A sequential gating strategy was used to analyze the CD14high CD11b+ monocyte population. […] A similar procedure for mouse CCR5 was adopted except that MIP-1beta (50 nM) was used as the ligand.

human CCR5 [6] = biological target: T2, human CCR5; experiment: Inhibition of 125I-MIP-1beta binding to human T cells (human CCR5); parameters: hPBMCs and human T cells were isolated from human leukopak; endogenous in cells; host or cells: human T cells isolated from human leukopak; conditions: human pharmacology, 125I-human MIP-1beta, read-out: CCR5 Potency, binding on CCR5-expressing cells (displacing 125I-labelled ligand)
Method: All conditions were tested in duplicate.

Mouse PK of Compound C = assay type: in vivo
human CCR5 [7] = biological target: T2, human CCR5; experiment: Human CCR5-mediated calcium flux in HT1080/CCR5 cells; assay type: cell-based; conditions: human pharmacology, MIP-1beta 50 nM, read-out: CCR5 Potency, ligand-induced calcium flux in cells
Method: as §3

mouse PD-1 [8] = biological target: T4, mouse PD-1 (Mus musculus, UniProt Q02242); experiment: Blocking binding of PD-L1 to mouse PD-1 on CHO transfectants; conditions: mouse potency; mouse PD-L1, CHO mouse PD-1; read-out: Blocking PD-L1 binding to PD1-expressing cells for IC50
T4 construct: expressed in transfected cells; host or cells: CHO cells
T4 sequence (Q02242 25-288): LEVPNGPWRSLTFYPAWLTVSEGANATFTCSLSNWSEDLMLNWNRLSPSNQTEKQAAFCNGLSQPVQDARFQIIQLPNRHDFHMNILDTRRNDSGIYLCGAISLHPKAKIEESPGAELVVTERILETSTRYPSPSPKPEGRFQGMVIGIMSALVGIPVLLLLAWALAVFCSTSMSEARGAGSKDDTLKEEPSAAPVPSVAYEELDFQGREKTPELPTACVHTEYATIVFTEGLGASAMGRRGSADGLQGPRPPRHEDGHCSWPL
Method: CHO transfectants stably expressing human and mouse PD-1 were pre-incubated with titrated mAbs against human and mouse PD-1, respectively, followed by addition of PD-L1-Fc at 2 μg/mL. Cell-bound PD-L1-Fc was detected with a FITC-conjugated secondary to human IgG Fcγ.

mouse PD-1 [9] = biological target: T4, mouse PD-1; experiment: Direct binding of anti-PD-1 mAb to mouse PD-1 on CHO transfectants; conditions: mouse potency; mouse PD1-expressing CHO cells
Method: Assays for Direct Binding of Anti-PD-1 Monoclonal Antibody (mAb) to PD1 Stably Expressed on CHO Transfectants
mAbs against human and mouse PD-1 were serially diluted and incubated with CHO cell transfectants stably expressing human and mouse PD-1, respectively, followed by detection with a FITC-conjugated secondary to mouse IgG Fcγ.

[10] = Tolerability in CT26 tumor-bearing mice; assay type: in vivo; conditions: CT26 model; alone or in combination
Method: as §2

[11] = Tolerability in MC38 tumor-bearing mice; assay type: in vivo; conditions: MC38 model; alone or in combination
Method: as §2

mouse PD-1 [12] = biological target: T4, mouse PD-1; experiment: Blocking binding of PD-L2 to mouse PD-1 on CHO transfectants; conditions: mouse potency; mouse PD-L2, CHO mouse PD-1; read-out: Blocking PD-L2 binding to PD1-expressing cells for IC50
Method: CHO transfectants stably expressing human and mouse PD-1 were pre-incubated with titrated mAbs against human and mouse PD-1, respectively, followed by addition of PD-L2-Fc at 15 μg/ml. Cell-bound PD-L2-Fc was detected with a FITC-conjugated secondary to human IgG Fc.

Q: Which Tumor-free mice ([1]; MC38 Study #1, Compound A 25 mg/kg PO BID 28 days alone) does the source give for `CCC[C@@H]1C[C@H](N(C)C(C)C)CC[C@@H]1N1CC[C@H](Nc2ncnc3ccc(C(F)(F)F)cc23)C1=O` [Compound A, (S)-1-((1S,2R,4R)-4-(isopropyl(methyl)amino)-2-propylcyclohexyl)-3-((6-(trifluoromethyl)quinazolin-4-yl)amino)pyrrolidin-2-one] here?
A: 0/10

Q: What about the Tumor-free mice ([1]; MC38 Study #1, Compound A 50 mg/kg PO BID 28 days alone) of the same molecule?
A: 0/10

Q: And the Tumor-free mice ([1]; MC38 Study #1, Compound A 100 mg/kg PO BID 28 days alone)?
A: 0/10

Q: And the Tumor-free mice ([1]; MC38 Study #2, Compound A 6.25 mg/kg PO BID 28 days alone)?
A: 0/10

Q: And the Tumor-free mice ([1]; MC38 Study #2, Compound A 50 mg/kg PO BID 28 days alone)?
A: 0/10

Q: And the Tumor-free mice ([2]; Compound A 12.5 mg/kg PO BID 28 days alone)?
A: 0/10

Q: What about the Tumor-free mice ([2]; Compound A 25 mg/kg PO BID 28 days alone) of the same molecule?
A: 0/10

Q: And the Tumor-free mice ([2]; Compound A 50 mg/kg PO BID 28 days alone)?
A: 0/10

Q: Which results are given for `CC(=O)N[C@@H]1C[C@H](NC(C)(C)C)CC[C@@H]1N1CC[C@H](Nc2ncnc3cc(C(C)(C)C)nn23)C1=O` [Compound C, N-((1R,2S,5R)-5-(tert-butylamino)-2-((S)-3-(7-tert-butylpyrazolo[1,5-a][1,3,5]triazin-4-ylamino)-2-oxopyrrolidin-1-yl)cyclohexyl)acetamide]?
A: IC50 (human CCR2 [3]): 2.9 nM; IC50 (human CCR5 [4]): 5.7 nM; mouse CCR2 potency (mouse CCR2): poor; IC50 (human CCR2 [5]): 4.8 nM; IC50 (human CCR5 [6]): 3.6 nM; mouse PK (Mouse PK of Compound C): poor; IC50 (human CCR5 [7]): 2 nM

B1: Antibody B: anti-mouse PD-1 antibody generated by murinizing the Fc tail of 4H2; contains a mouse IgG1 D265A; SEQ ID NO: 1 and 2 (protein)
light: DTVLTQSPALAVSLGQRVTISCKASETVSSSMYSYIHWYQQKPGQQPKLLIYRASNLESGVPARFSGSGSGTDFTLTIDPVEADDVATYFCQQSWNPWTFGGGTKLELKRADAAPTVSIFPPSSEQLTSGGASVVCFLNNFYPKDINVKWKIDGSERQNGVLNSWTDQDSKDSTYSMSSTLTLTKDEYERHNSYTCEATHKTSTSPIVKSFNRNEC
heavy: QVQLKESGPGLVQPSQTLSLTCTVSGFSLTSYNVHWVRQPPGKGLEWMGGMRYNEDTSYNSALKSRLSISRDTSKNQVFLKMNSLQTDDTGTYYCTRDAVYGGYGGWFAYWGQGTLVTVSSAKTTPPSVYPLAPGSAAQTNSMVTLGCLVKGYFPEPVTVTWNSGSLSSGVHTFPAVLQSDLYTLSSSVTVPSSTWPSETVTCNVAHPASSTKVDKKIVPRDCGCKPCICTVPEVSSVFIFPPKPKDVLTITLTPKVTCVVVDISKDDPEVQFSWFVDDVEVHTAQTQPREEQFNSTFRSVSELPIMHQDWLNGKEFKCRVNSAAFPAPIEKTISKTKGRPKAPQVYTIPPPKEQMAKDKVSLTCMITDFFPEDITVEWQWNGQPAENYKNTQPIMDTDGSYFVYSKLNVQKSNWEAGNTFTCSVLHEGLHNHHTEKSLSHSPGK
modifications: Antibody B Light chain variable; Antibody B heavy chain variable
Q: For B1, which IC50 (mouse PD-1 [8]) is on record?
A: 3.6 nM

Q: And the EC50 (mouse PD-1 [9])?
A: 2.9 nM

Q: And the tolerability [10]?
A: well tolerated

Q: What about the Tumor-free mice ([1]; MC38 Study #1, Antibody B 10 mg/kg i.p., 3 doses, alone) of the same molecule?
A: 1/10

Q: And the Tumor-free mice ([1]; MC38 Study #2, Antibody B 10 mg/kg, 3 doses, alone)?
A: 0/10

Q: And the tolerability [11]?
A: well tolerated

Q: What about the IC50 (mouse PD-1 [12]) of the same molecule?
A: 4.9 nM

Q: And the Tumor-free mice ([2]; Antibody B 10 mg/kg, 3 doses, alone)?
A: 0/10
